# In patent US5212157A, “Enzyme inhibitors” (Bio-Mega, Inc., priority 1989, dated 1993):
# Where a name gives a salt, the structure may show the parent alone. Numbered stars: 1 amine (or outer) side, 2 acyl side, 3 side chain; on linkers, the order of the positions; unused ones are H or OH. Square brackets hold non-standard residues; d marks the D form. Peptide text beside a SMILES is read from it. Ahppa(3S,4S) = O=C(C[C@H](O)[C@H](Cc1ccccc1)N[*:1])[*:2]; ACHPA = O=C(C[C@H](O)[C@H](CC1CCCCC1)N[*:1])[*:2]; Tic = O=C(O)[C@@H]1Cc2ccccc2CN1
# Molecular target: T1, HIV protease (Human immunodeficiency virus type 1 group M subtype B, UniProt P04585)
# T1 construct: HIV protease was expressed in E. coli and purified to ca. 50% purity; made in house; host or cells: E. coli
# Experiment: Recombinant HIV Protease HPLC Assay
# Format: biochemical
# Conditions: recombinant HIV protease expressed in E. coli; substrate VSFNFPQITL-NH2; pH 6 buffer; 37° C. for 1 h; HPLC quantification
# From the text: The procedure is based on the capacity of the test compound to inhibit enzymatic cleavage by HIV protease of a decapeptide (the substrate) having an amino acid sequence which includes a known HIV protease cleavage site of the HIV polyprotein; see H. G. Krausslich et al., Proc. Natl. Acad. Sci. USA, 86, 807 (1989). Details of this assay together with the results obtained for exemplified peptides of formula 1 are described in the examples hereinafter.
# Recombinant HIV Protease HPLC Assay
# Enzyme: HIV protease was expressed in E. coli and purified to ca. 50% purity according to the procedure described by H.-G. Krausslich et al., Proc. Natl. Acad. Sci. U.S.A., 86, 807 (1989). The enzyme was stored as 10 μL aliquots at -70° C. The aliquots were diluted to 1/10th of the original concentration with buffer prior to use (enzyme working solution).
# Substrate: VSFNFPQITL-NH2, MW 1164, see Krausslich et al., supra, was used as substrate. The substrate was made into 10 mM stock in DMSO and stored at -20° C. Prior to use, the stock was diluted with buffer to give a 400 μM solution substrate working solution.
# Buffer: 2-(4-Morpholino)ethanesulfonic acid (50 mM), NaCl (25 mM) and EDTA (5 mM) was dissolved in distilled H2 O (90 mL) and the solution was adjusted to pH6 with concentrated aqueous NaOH. The latter solution was diluted to 100 mL with H2 O to give the buffer.
# Procedure: (1) The test compound was dissolved in DMSO to give a solution having 40× the final concentration of the test compound in the assay mixture (see step 2) so that the amount of DMSO in the assay mixture was 5% (v,v) or less. (2) The assay mixture was prepared by mixing 10 μL of the substrate working solution, 0.5 μL of the solution of the test compound in DMSO from step 1, and 10 μL of the enzyme working solution. (3) The assay mixture was incubated at 37° C. for 1h. (4) The reaction was quenched by adding 100 μL of 2% aqueous TFA. (5) The substrate and products (i.e. VSFNF and PQITL-NH2) were separated by subjecting 100 μL of the quenched assay mixture to HPLC using Nucleosil ® C18 column with a 26-min linear gradient at 1 mL/min from 11% to 70% acetonitrile in H2 O with 0.05% aqueous TFA. Elution was monitored at 210 nm. (6) A control which was the assay mixture without the test compound, was subjected simultaneously to steps 3 to 5.
# Inhibition Studies: Cleavage products and remaining parent substrate were quantified by either peak height or by integration of the appropriate HPLC peaks. Substrate conversion was calculated using the following relationship: [formula] Enzyme inhibition of the test compound was calculated as follows: [formula]
# The concentration of the test compound which causes a 50% inhibition of the HIV-protease, i.e. the IC50, was determined as follows: The percent inhibition of the enzyme was determined for a minimum of three different concentrations of the test compound. Thereafter, the IC50 was determined graphically by plotting the percent inhibition of the substrate against the concentration of the test compound.
row,Compound,IC50 [nM]
1,"CC(C)C[C@H](NC(=O)C[C@H](O)[C@H](CC1CCCCC1)NC(=O)[C@H](C)NC(=O)[C@@H]1Cc2ccccc2CN1)C(=O)N[C@@H](Cc1ccccc1)C(=O)O [Example 14, THIQ-Ala-ACHPA-Leu-Phe-OH.HCl] (H-[Tic]A[ACHPA]LF-OH)",200
2,"CC(C)C[C@H](NC(=O)C[C@H](O)[C@H](Cc1ccccc1)NC(=O)[C@@H](NC(=O)[C@@H]1Cc2ccccc2CN1)C(C)C)C(=O)N[C@@H](Cc1ccccc1)C(N)=O [Example 16, THIQ-Val-AHPPA-Leu-Phe-NH2.HCl] (H-[Tic]V[Ahppa(3S,4S)]LF-NH2)",25
3,"N-[N-[N-[N-[3-(1,2,3,4-Tetrahydroisoquinolyl)carbonyl]-L-alanyl]-4(S)-amino-3(S)-hydroxy-5-cyclohexylpentanoyl]-L-leucyl]-L-phenylalaninamide Hydrochloride [Example 1]",90
4,THIQ-Val-ACHPA-Ala-Phe-NH2.HCl [Example 7],17
5,THIQ-Val-Cha.psi.[CH2 NH]Leu-Leu-Phe-NH2.HCl [Example 20],80
